From patent publication US20260294864A1, “PHARMACEUTICAL COMPOSITION FOR THE TREATMENT AND PREVENTION OF HPV” (NP1 SRL, priority 2022, published 2026) come the findings set out here.

What all share (format): cell-based, human
One assay has as its system HeLa cells. The assay is described as follows: Anti-clonogenic activity on HeLa cells (plating efficiency assay / live cell imaging). As to conditions: HeLa; for clonal inhibition in combination with Apigenin: 50 μM combined with Apigenin 25 μM; for clonal inhibition in combination with Apigenin / end point clonal assay, clonal inhibition alone: FIG. 9-11; for clonal inhibition in combination with Chrysin: 50 μM combined with Chrysin 25 μM; for clonal inhibition in combination with Chrysin / synergy with Galangine, Apigenin and Chrysin: FIG. 10-11; for end point clonal assay, clonal inhibition alone / Anti-clonal effect: 50 μM; for end point clonal assay, clonal inhibition alone: administered alone; for Anti-clonal effect: isolated, FIG. 1. The protocol:
Panel C and D: diagrammatic topographical maps of treatments and growth conditions on plates A and B respectively.
Panel A. Hela cells were challenged with serial twofold dilutions of 50 μM Luteolin (in columns 1-6) and 100 μM Galangin (columns 7-10). Hela control untreated cells in columns 11-12.
(§1) A total of 6 cell lines, outlined in Table 3, were used for this study. The cell lines were obtained from Research Centres of cell biology in Italy, United Kingdom and Germany. This research raised no ethical concern being based on entirely in vitro experiments using no patients' derived information or material. In compliance with National and International ethical rules, no informed consent is needed.
(§2) HeLa cells are the oldest continuous cell lines and were originally derived from a HPV18 positive metastatic cervical carcinoma (Scherer W F et al 1953). Siha cells are an epithelioid like cell line derived from a HPV16-positive invasive cervical squamous carcinoma (Friedel F et al 1970). Ca-Ski cells are a line harboring multiple copy of transcriptionally active HPV16 genomes (Baker C C et al 1984). Both Hela and Siha were a kind gift of prof MS Campo, The Beatson Institute for Cancer Research, Glasgow, Scotland. These two cell lines because of their versatility and ease of use were used for most of experiments reported. Ca-Ski cells were obtained through the courtesy of prof. Matthias Durst, at the Deutsch Krebsforschungzentrum—Heidelberg, FRG. These cells used together with Siha provide a model for the genetic instability and variability of cervical cancers. HK-168 is an immortalized, non-tumorigenic, continuous cell line derived from human skin keratinocytes in vitro transformed with whole HPV16 genome (De Marco F et al 2007). This cell line is reputed to recapitulate le biological features of transformed dysplastic cells and was used in preliminary experiments to set the experimental dosages and conditions. The ME-180 cells are a cell line harboring a few, transcriptionally active, copies of HPV68 and provide an in vitro model for dysplastic/neoplastic lesions induced by HPV with Intermediate oncogenic Risk (Yee C C et al 1985). The HaCaT cells, derived from a solar skin lesion by Petra Boukamp et al (1988) are here used as an in vitro equivalent of Ultra-Violet induced pre-neoplastic epithelial cells to rule out possible direct toxic effects of polyphenols. Both HaCaT and ME-180, were kindly donated by Prof. Matthias Durst. Hela, Siha, Ca-Ski, ME-180 and HaCaT were all grown in high glucose DMEM supplemented with 10% fetal calf serum (FCS). The HK-168 cells, which retained the ability to terminally differentiate under high Ca^2+ and FCS concentrations, were grown in K-SFM, a chemically defined medium supplemented with human EGF and bovine pituitary extract (ThermoFisher Scientific, Life Technologies, Monza—MI). Each cell line was sub-cultured twice a week at the appropriate split ratio according to the specific proliferative index. In no case antibiotics or antimycotics were added to the culture media. For the present study, all cell lines were retrieved from an in-house cell archive facility.
The anti-clonogenic activity was evaluated both by the current standard qualitative plating efficiency assay and by quantitative live cell imaging analysis ([…] S3 Live Cell Analysis Imaging System—Sartorius Welwyn Garden City, Hertfordshire, UK).

For another assay, the system named is HPV transformed cells. The assay is described as follows: Anti-clonal effect on HPV transformed cells (cell line not stated). The conditions noted are these: for clonal inhibition in combination / anticlonogenic / anti-clonal effect: summary statement; for anticlonogenic / anti-clonal effect / IC50 / IRR (inhibitory relative rate): isolated compound; for IC50: Homo sapiens, minimal concentration reducing 50% of CFU of treated versus control, read-out: CID50 (50% clonal inhibitory dose), isolated polyphenols; for IRR (inhibitory relative rate): reverse ratio of CID50 to the reference CID50 of Quercetin (=1). As to the method: The inhibitory relative rate (IRR) (fourth column) provides an efficacy ranking of molecules.
The anti-clonogenic activity was evaluated both by the current standard qualitative plating efficiency assay and by quantitative live cell imaging analysis (INCUCYTE S3 Live Cell Analysis Imaging System—Sartorius Welwyn Garden City, Hertfordshire, UK). For qualitative plating efficiency assay cells were seeded at ‘clonal’ density (i.e., 0.5 cell/mm^2) either in medium containing the testing molecules or with plain medium and incubated without any further manipulation. After 9-14 days, according to the cell line specific proliferative index, the cultures were decanted and stained with 0.2% CV/methanol for 5 min at room temperature. All conditions were tested in triplicates in a 6-well culture plate. The anti-clonogenic activity of the treatments was evaluated using the colony forming units (CFU) of treated versus control cultures. The minimal concentration which could reduce 50% of the CFU of treated versus control culture was defined as colony-forming Inhibitory concentration (CID50). For quantitative evaluation cells were seeded in 96-well microplates at the above density and condition and allowed to grow the subsequent 8-day incubation in the INCUCYTE S3 Imaging System. Images were acquired at 12-hours intervals and colony formation and percentage of growth area covered (confluency) were then monitored through automated image analysis. The analysis parameters were as follows: segmentation adjustment=0.4; hole fill <5,000 μm^2; adjusted pixel=−2.

Assay [1] has as its system Siha cells. The assay is described as follows: Anti-clonogenic activity on SiHa cells (plating efficiency assay / live cell imaging). The conditions noted are these: alone. As to the method: In this experiment Kaempferol and Apigenin were administered to Siha cells at decremental concentrations, either in combination or alone, as shown in the topographical map (in panel C). […] Histograms in Panel B depict the number of colonies per well as evaluated by visual inspection and count.
The Histograms in Panel B depict the number of colonies per well as evaluated by visual inspection and count. • In Panel C a topographical map of plate treatments. Each condition was assayed in duplicate.
Kaempferol, Galangin, Luteolin and their combination were administered to SiHa cells at the concentrations of 25 μM each and of 12,5/12,5/6,25 μM for their combination. Treatments were allowed to stay on cells either for 2 or 4/8/16/24 hours. After that, treatments were washed out, cells washed two times with PBS, replenished with fresh medium and the anti-clonal effect was then monitored by live cell image analysis.
as §1, §2

For assay [2], the system named is Siha cells. Kind of assay: Antiproliferative effect on Siha cells, live cell analysis. As to conditions: Siha 1000 cells/well. As to the method: FIG. 2: live cell analysis of RNPs antiproliferative effect. Siha cells were seeded at 1000 cells/well in a 96 well plate and allowed to adhere overnight. The plate was then washed twice with PBS and replenished with 100 microliter/well fresh medium plus 50 μM of each compound. Images were taken every 12 hours; Growth curves were drawn plotting the percentage of confluence versus time. […] In fact, their growth curves outline a single spindle completely overlapping and masking the one of control untreated cells. Conversely, a distinct anti-proliferative effect is evident in panel B- where the growth curves of RNP 9 Kaempferol (solid squares), RNP 12 Luteolin (solid diamonds), RNP 16 Apigenin (solid circles) and control untreated cells (solid stars) are depicted. […] Each point represents the mean of six independent replicas. Bar width represents the Standard Deviation (SD). Consistent results were also obtained by HeLa and ME-180 cells
For antiproliferative effect cells were seeded in 96-well microplates at 1000 cells/per well (i.e.: 30 cell/mm^2), a density allowing exponential growth rate for the subsequent 8-day incubation. After overnight adhesion cell monolayers were washed and replenished with fresh media with different testing molecules, plain medium served as cell growth control.
Cell growth was then monitored by automated INCUCTE S3 imaging Systems. Images were acquired at 12-hours intervals. The analysis parameters were as follows: segmentation adjustment=0.9; hole fill <7,000 μm^2; adjusted pixel=0.
Data for growth curves, anti-clonal and Antiproliferative assays were obtained from at least three independent experiments. Each data point of quantitative anti-proliferative or anti-clonal experiments represents the mean (±SD) of eight independent replicates. Data were analyzed and plotted using Prism 6.0 software (GraphPad Software, San Diego, CA).

The mark [3] stands for this setting: 50 μM combined with Galangin 25 μM, FIG. 11.
Setting [4] is: combined with Galangin, Chrysin or Apigenin.

Turning to `O=C(O)c1ccc(O)c(O)c1` [Protocatechuic acid], in the assay with HeLa cells, the “clonal inhibition in combination with Apigenin” value was “almost complete clonal inhibition”; the “clonal inhibition in combination with Chrysin” value is “almost complete clonal inhibition”; the “end point clonal assay, clonal inhibition alone” value is on record as “neither of them induced any effect”; the Anti-clonal effect result was “devoid of any significant anticlonogenic effect”. In addition, in the assay on HeLa cells (setting [3]), the “clonal inhibition in combination with Galangin” value is reported as “almost complete clonal inhibition”. In addition, in the assay with HeLa cells (in association), the “synergy with Galangine, Apigenin and Chrysin” value (“synergy with Galangine” for short) was “synergize”. For the same compound, in the assay on HPV transformed cells (setting [4]), the “clonal inhibition in combination” value is listed as “a certain grade of clonal inhibition”. For the same compound, in the assay with HPV transformed cells, the “anticlonogenic / anti-clonal effect” value is recorded as “devoid of. any direct anticlonogenic activity”.
Consider `C[C@@H]1O[C@@H](OC[C@H]2O[C@@H](Oc3c(-c4ccc(O)c(O)c4)oc4cc(O)cc(O)c4c3=O)[C@H](O)[C@@H](O)[C@@H]2O)[C@H](O)[C@H](O)[C@H]1O` [Rutin], for which, in the assay on HeLa cells, the Anti-clonal effect result is given as “No effect”.
As to `O=c1cc(-c2ccccc2)oc2cc(O)cc(O)c12` [Chrysin], the Anti-clonal effect result in the assay on HeLa cells is recorded as “almost complete suppression of clonal activity”. For the same compound, in the assay on HPV transformed cells, the IC50 was 25 µM; the “IRR (inhibitory relative rate)” value is reported as 2; the “anticlonogenic / anti-clonal effect” value was “fair anti-clonal effect, although milder”.
Turning to `O=C1C[C@@H](c2ccccc2)Oc2cc(O)cc(O)c21` [Pinocembrin], the Anti-clonal effect entry with HeLa cells is listed as “devoid of any significant anticlonogenic effect”.
In the case of `O=c1cc(-c2ccc(O)cc2)oc2cc(O)cc(O)c12` [Apigenin], the Anti-clonal effect entry in the assay on HeLa cells is “almost complete suppression of clonal activity”. In addition, the “clonal efficiency versus control untreated cells” value with Siha cells [1] (12.5 μM, Siha, FIG. 4) is recorded as “no difference to control untreated cells”. The “end-point anti-clonal effect versus control untreated cells” value in the assay on Siha cells [1] (25.0 μM, SiHa, FIG. 6-8) was “no difference to control untreated cells”. For the same compound, the antiproliferative effect result in the assay with Siha cells [2] (50 μM, FIG. 2) is recorded as “distinct, although milder effect”. Further, in the assay on Siha cells [2] (Homo sapiens, FIG. 2, read-out: suppression of proliferation), the inhibition at 50 µM is roughly 20%. Further, in the assay on HPV transformed cells, the IC50 came out at 25 µM; the “IRR (inhibitory relative rate)” value was 2; the “anticlonogenic / anti-clonal effect” value is on record as “fair anti-clonal effect, although milder”.
Consider `O=c1c(O)c(-c2ccc(O)c(O)c2)oc2cc(O)cc(O)c12` [Quercetin], for which the Anti-clonal effect result in the assay on HeLa cells is “almost complete suppression of clonal activity”. Besides, in the assay with HPV transformed cells, the IC50 was 50 µM and the “anticlonogenic / anti-clonal effect” value is reported as “fair anti-clonal effect, although milder”.
Turning to `O=C(O)c1ccccc1` [Benzoic acid], in the assay on HeLa cells, the “clonal inhibition in combination with Apigenin” value is given as “almost complete clonal inhibition”; the “clonal inhibition in combination with Chrysin” value is reported as “almost complete clonal inhibition”; the “end point clonal assay, clonal inhibition alone” value was “neither of them induced any effect”; the Anti-clonal effect entry was “devoid of any significant anticlonogenic effect”. Further, in the assay with HeLa cells (setting [3]), the “clonal inhibition in combination with Galangin” value was “almost complete clonal inhibition”. Moreover, the “synergy with Galangine” value in the assay on HeLa cells (in association) is reported as “synergize”. Also, in the assay with HPV transformed cells (setting [4]), the “clonal inhibition in combination” value is on record as “a certain grade of clonal inhibition”. In the assay on HPV transformed cells, the “anticlonogenic / anti-clonal effect” value is recorded as “devoid of. any direct anticlonogenic activity”.
As for `O=C(/C=C/c1ccc(O)c(O)c1)O[C@@H]1C[C@](O)(C(=O)O)C[C@@H](O)[C@H]1O` [Chlorogenic acid], in the assay on HeLa cells, the “clonal inhibition in combination with Apigenin” value is on record as “almost complete clonal inhibition”; the “clonal inhibition in combination with Chrysin” value is listed as “almost complete clonal inhibition”; the “end point clonal assay, clonal inhibition alone” value is “neither of them induced any effect”; the Anti-clonal effect entry was “devoid of any significant anticlonogenic effect”. In addition, the “clonal inhibition in combination with Galangin” value in the assay with HeLa cells (setting [3]) is “almost complete clonal inhibition”. Besides, the “synergy with Galangine” value in the assay on HeLa cells (in association) is reported as “synergize”. The “clonal inhibition in combination” value in the assay with HPV transformed cells (setting [4]) is recorded as “a certain grade of clonal inhibition”. For the same compound, the “anticlonogenic / anti-clonal effect” value in the assay on HPV transformed cells was “devoid of. any direct anticlonogenic activity”.
With `O=C1c2c(O)cc(O)cc2O[C@H](c2ccccc2)[C@H]1O` [Pinobanksin], the Anti-clonal effect entry with HeLa cells is reported as “No effect”.
For the compound `COc1cc(C(=O)O)ccc1O` [Vanillic acid], in the assay with HeLa cells, the “clonal inhibition in combination with Apigenin” value is given as “almost complete clonal inhibition”; the “end point clonal assay, clonal inhibition alone” value is on record as “neither of them induced any effect”; the Anti-clonal effect entry is “devoid of any significant anticlonogenic effect”. Besides, the “clonal inhibition in combination with Galangin” value with HeLa cells (50 μM combined with Galangin 12.5 μM, FIG. 9-10) is listed as “almost complete clonal inhibition”. In addition, the “synergistic effect with Galangine and Apigenin” value with HeLa cells (in association, FIG. 9) is given as “synergistic effect”. Further, in the assay with HPV transformed cells (combined with Galangin or Quercetin), the “clonal inhibition in combination” value was “a certain grade of clonal inhibition”. Moreover, in the assay on HPV transformed cells, the “anticlonogenic / anti-clonal effect” value was “devoid of any direct activity”. Also, the “anticlonogenic / anti-clonal effect” value in the assay with HPV transformed cells (listed as Vanillic) was “devoid of. any direct anticlonogenic activity”.
